Measurements from PMC8572102 (Pharmacogenomics and Personalized Medicine, 2021).
Read-outs that look alike come from different tables or passages of the source.

Assays:
[1] = system: CYP2C19 and CYP3A4; conditions: major metabolite of voriconazole, in vitro studies; cited from earlier work
[2] = assay type: in vivo, human (Chinese patients)

Structure (SMILES)	Share of all metabolites [1]	Frequency of supra-therapeutic levels (> 5µg/mL) ([2]; CYP2C19 intermediate metabolizer patients) [%]	Frequency of supra-therapeutic levels (> 5µg/mL) ([2]; CYP2C19 normal metabolizer patients) [%]	Frequency of supra-therapeutic levels (> 5µg/mL) ([2]; CYP2C19 poor metabolizer patients) [%]	Median trough concentration of voriconazole in sub-group analysis ([2]; PM/PPIs users group, excluding cases administered omeprazole or esomeprazole)	concentration at 12 h ([2]; human, plasma, 200 mg, Voriconazole trough concentration, median (IQR), all patients, 250 samples from 114 patients, voriconazole 200mg 12hrly, steady state) [µg/mL]
C[C@@H](c1nc[n+]([O-])cc1F)[C@](O)(Cn1cncn1)c1ccc(F)cc1F [voriconazole N-oxide]	about 74%					
C[C@@H](c1ncncc1F)[C@](O)(Cn1cncn1)c1ccc(F)cc1F [voriconazole]		13.5	15.4	47.8	below supra-therapeutic levels	2.1
